# System: Acinetobacter baumannii (Ab23)
# Assay: MIC shift assay of antibiotics (broth microdilution)
# Type: cell-based
# Conditions: compound concentration 1 μM; fold shift of colistin MIC; nc = no changeover or no shift
# In short: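 Broth microdilution MIC shift assay against Acinetobacter baumannii. Overnight cultures in cation-adjusted Mueller Hinton broth at 37° C. were sub-cultured 1:200, grown to OD600=0.5 to 0.8, diluted to OD600=0.01, and added (50 μL) to wells holding 50 μL of 2× antibiotic stocks for a starting OD600 of 0.005. After 18 to 20 h at 37° C. with shaking, OD600 was read to obtain MICs.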
row,Structure (SMILES),"colistin MIC shift, Ab23 at (compd concentration)"
1,FC(F)(F)c1cccc(-c2c[nH]c3cc(Cl)c(Cl)cc23)c1 [compound 431],4x (1 μM);

# Same assay, conditions: compound concentration 2 μM; fold shift of colistin MIC; nc = no changeover or no shift
row,Structure (SMILES),"colistin MIC shift, Ab23 at (compd concentration)"
1,FC(F)(F)c1cccc(-c2c[nH]c3cc(Cl)c(Cl)cc23)c1 [compound 431],≧16x (2 μM)
2,Clc1ccc(-c2c[nH]c3cc(Cl)c(Cl)cc23)cc1Cl [compound 432],8x
3,FC(F)(F)c1cc(-c2c[nH]c3cc(Cl)c(Cl)cc23)ccc1Cl [compound 436],4x
4,CC(C)(c1c[nH]c2cc(Cl)c(Cl)cc12)c1c[nH]c2cc(Cl)c(Cl)cc12 [compound 440],≧16x
5,FC(F)(F)c1ccc2c(-c3ccc(Cl)c(Cl)c3)n[nH]c2c1 [compound 441],≧16x

# Same assay, conditions: compound concentration 4 μM; fold shift of colistin MIC; nc = no changeover or no shift
row,Structure (SMILES),"colistin MIC shift, Ab23 at (compd concentration)"
1,FC(F)(F)c1cc(Cl)cc(-c2c[nH]c3cc(Cl)c(Cl)cc23)c1 [compound 434],32x
2,FC(F)(F)c1cccc(-c2ccc3[nH]cc(-c4ccc(Cl)c(Cl)c4)c3c2)c1 [compound 438],2x
3,Cc1cccc2c(NCCCN(C)C)nc(-c3ccc4cc(Cl)c(Cl)cc4c3)nc12 [compound 444],16x
4,Cc1cccc2c(NCCCN(C)C)nc(-c3cc(Br)c4ccccc4c3)nc12 [compound 446],8-16x
5,Cc1cccc2c(NCCCN(C)C)nc(-c3cccc(-c4cccc(C(F)(F)F)c4)c3)nc12 [compound 466],8-16x
6,"COc1ccc2c(NCCCN(C)C)nc(/C=C/c3ccc(Cl)c(Cl)c3)nc2c1C [compound 467, (E)-N^1-(2-(3,4-dichlorostyryl)-7-methoxy-8-methylquinazolin-4-yl)-N^3,N^3-dimethylpropane-1,3-diamine]",16x
7,Cc1cccc2c(NCCCN(C)C)nc(-c3cccc(-c4ccc(Cl)c(Cl)c4)c3)nc12 [compound 468],16-32x
8,Cc1cccc2c(NCCCN(C)C)nc(-c3cccc(-c4cc(Cl)cc(Cl)c4)c3)nc12 [compound 470],2x
9,Cc1cccc2c(NCCCN(C)C)nc(-c3cccc(-c4ccc(C(F)(F)F)cc4F)c3)nc12 [compound 472],16x
10,Cc1cccc2c(NCCCN(C)C)nc(-c3cccc(-c4cc(C(F)(F)F)ccc4F)c3)nc12 [compound 474],32x
11,CNCCCNc1nc(-c2cccc(-c3cccc(C(F)(F)F)c3)c2)nc2c(C)cccc12 [compound 478],4x
12,CN(C)CCCNc1nc(-c2cccc(-c3ccccc3)c2)nc2cc(C(F)(F)F)ccc12 [compound 480],4x
13,CCN(CC)CCCC(C)Nc1nc(-c2cccc(-c3cc(C(F)(F)F)ccc3F)c2)nc2cc(C(F)(F)F)ccc12 (stereo not shown) [compound 481],8x
14,CN(C)CCCNc1nc(-c2cccc(-c3cc(C(F)(F)F)ccc3F)c2)nc2cc(C(F)(F)F)ccc12 [compound 482],32x
15,Cc1cccc2c(NCCCN(C)C)nc(-c3cccc(-c4cccc(Cl)c4Cl)c3)nc12 [compound 484],16x
16,CN(C)CCCNc1nc(-c2cccc(-c3ccccc3)c2)nc2c(Cl)cccc12 [compound 486],4x
17,CN(C)CCCNc1nc(-c2cccc(-c3ccc(Cl)c(Cl)c3)c2)nc2c(Cl)cccc12 [compound 488],32x
18,CN(C)CCCNc1nc(-c2cccc(-c3ccc(C(F)(F)F)c(F)c3)c2)nc2c(Cl)cccc12 [compound 489],16x
19,CN(C)CCCNc1nc(-c2cccc(-c3cccc(Cl)c3Cl)c2)nc2c(Cl)cccc12 [compound 490],16x
20,CN(C)CCCNc1nc(-c2cccc(-c3cc(F)cc(C(F)(F)F)c3)c2)nc2c(Cl)cccc12 [compound 491],32x
21,Cc1cccc2c(NCCCN(C)C)nc(-c3cc(-c4cccc(C(F)(F)F)c4)cc(C(F)(F)F)c3)nc12 [compound 494],16x
22,Cc1cccc2c(NCCCN(C)C)nc(-c3cc(-c4ccc(C(F)(F)F)cc4)cc(C(F)(F)F)c3)nc12 [compound 496],16x
23,Cc1cccc2c(N(C)CCCN(C)C)nc(-c3cc(Br)cc(C(F)(F)F)c3)nc12 [compound 502],32x
24,Cc1cccc2c(NCCCN(C)C)nc(-c3cc(-c4ccccc4C(F)(F)F)cc(C(F)(F)F)c3)nc12 [compound 509],64x
25,Cc1cccc2c(NCCCN(C)C)nc(-c3cc(-c4cccnc4)cc(C(F)(F)F)c3)nc12 [compound 510],16x
26,Cc1c(Cl)ccc2c(NCCCN(C)C)nc(-c3cc(Br)cc(C(F)(F)F)c3)nc12 [compound 511],64x

# Continued, values first:
row,"colistin MIC shift, Ab23 at (compd concentration)",Structure (SMILES)
1,16x,CCN(CC)CCCC(C)Nc1nc(-c2ccc3cc(Cl)c(Cl)cc3c2)nc2c(C)cccc12 (stereo not shown) [compound 443]
2,4x,CCN(CC)CCCC(C)Nc1nc(-c2cc(Cc3ccccc3)c3ccccc3c2)nc2c(C)cccc12 (stereo not shown) [compound 447]
3,64x,Cc1cccc2c(NCCCN3CCNCC3)nc(-c3cc(Br)cc(C(F)(F)F)c3)nc12 [compound 462]
4,8-16x,CCN(CC)CCCC(C)Nc1nc(-c2cccc(-c3cccc(C(F)(F)F)c3)c2)nc2c(C)cccc12 (stereo not shown) [compound 465]
5,16x,CCN(CC)CCCC(C)Nc1nc(-c2cccc(-c3cc(Cl)cc(Cl)c3)c2)nc2c(C)cccc12 (stereo not shown) [compound 469]
6,8x,CCN(CC)CCCC(C)Nc1nc(-c2cccc(-c3ccc(C(F)(F)F)cc3F)c2)nc2c(C)cccc12 (stereo not shown) [compound 471]
7,16x,CCN(CC)CCCC(C)Nc1nc(-c2cccc(-c3cc(C(F)(F)F)ccc3F)c2)nc2c(C)cccc12 (stereo not shown) [compound 473]
8,4-8x,CCN(CC)CCCC(C)Nc1nc(-c2cccc(-c3cc(F)cc(C(F)(F)F)c3)c2)nc2c(C)cccc12 (stereo not shown) [compound 475]
9,16x,CCN(CC)CCCC(C)Nc1nc(-c2cccc(-c3ccc(C(F)(F)F)c(F)c3)c2)nc2c(C)cccc12 (stereo not shown) [compound 476]
10,8x,CCN(CC)CCCC(C)Nc1nc(-c2cccc(-c3ccccc3)c2)nc2cc(C(F)(F)F)ccc12 (stereo not shown) [compound 479]
11,16x,CCN(CC)CCCC(C)Nc1nc(-c2cccc(-c3cccc(Cl)c3Cl)c2)nc2c(C)cccc12 (stereo not shown) [compound 483]
12,16x,CCN(CC)CCCC(C)Nc1nc(-c2cc(-c3cccc(C(F)(F)F)c3)cc(C(F)(F)F)c2)nc2c(C)cccc12 (stereo not shown) [compound 493]
13,16x,CCN(CC)CCCC(C)Nc1nc(-c2cc(-c3ccc(C(F)(F)F)cc3)cc(C(F)(F)F)c2)nc2c(C)cccc12 (stereo not shown) [compound 495]
14,8x,Cc1cc(-c2nc(NCCCN(C)C)c3cccc(C)c3n2)cc(C(F)(F)F)c1 [compound 507]
15,8x,Cc1cccc2c(NCCCN(C)C)nc(-c3cc(F)cc(C(F)(F)F)c3)nc12 [compound 508]

# Same assay, conditions: compound concentration 8 μM; fold shift of colistin MIC; nc = no changeover or no shift
row,Structure (SMILES),"colistin MIC shift, Ab23 at (compd concentration) [x]"
1,CCN(CC)CCCC(C)Nc1nc(-c2cc(Br)c3ccccc3c2)nc2c(C)cccc12 (stereo not shown) [compound 445],16
2,Cc1cccc2c(NCCCN(C)C)nc(-c3cccc(C(F)(F)F)c3)nc12 [compound 499],16
3,COc1cc(-c2nc(NCCCN(C)C)c3cccc(C)c3n2)cc(C(F)(F)F)c1 [compound 504],16

# Same assay, conditions: compound concentration 10 μM; fold shift of colistin MIC; nc = no changeover or no shift
row,Structure (SMILES),"colistin MIC shift, Ab23 at (compd concentration) [x]"
1,FC(F)(F)c1cc(-c2c[nH]c3cc(Cl)c(Cl)cc23)cc(C(F)(F)F)c1 [compound 435],16
2,Cc1cccc2c(NCCCN(C)C)nc(-c3cccc(Br)c3)nc12 [compound 455],4
3,Cc1cccc2c(NCCCN(C)C)nc(-c3ccc(Cl)c(Cl)c3)nc12 [compound 458],16
4,CCN(CC)CCCC(C)Nc1nc(-c2cccc(-c3ccccc3)c2)nc2c(Cl)cccc12 (stereo not shown) [compound 485],8
5,CN(C)CCCNc1nc(-c2cc(Br)cc(C(F)(F)F)c2)nc2c(F)cccc12 [compound 503],4

# Now from value to compound:
row,"colistin MIC shift, Ab23 at (compd concentration) [x]",Structure (SMILES)
1,8,Cc1cccc2c(NCCCN3CCOCC3)nc(-c3cc(Br)cc(C(F)(F)F)c3)nc12 [compound 459]
2,4,CCN(CC)CCCC(C)Nc1nc(-c2cc(N3CCOCC3)cc(C(F)(F)F)c2)nc2c(C)cccc12 (stereo not shown) [compound 500]
3,8,Cc1cccc2c(NCCCN(C)C)nc(-c3cc(N4CCOCC4)cc(C(F)(F)F)c3)nc12 [compound 501]

# Reference: patent US20160168140A1, “HETEROCYCLIC COMPOUNDS AS ANTIBIOTIC POTENTIATORS” (priority 2014, published 2016)
